Reference: patent US11104671B2, “Insecticidal compounds” (SYNGENTA PARTICIPATIONS AG, priority 2017, dated 2021)
Like-named read-outs stand apart in the source and are kept apart here.

Key:
Format in all cases: in vivo
[1] = test system: Spodoptera littoralis; test: Spodoptera littoralis (Egyptian cotton leaf worm), cotton leaf discs, L1 larvae; conditions: foliar, 72 h, read-out: control (mortality, anti-feedant effect or growth inhibition)
Experimental: Spodoptera littoralis (Egyptian Cotton Leaf Worm)
Cotton leaf discs were placed onto agar in 24-well microtiter plates and sprayed with aqueous test solutions prepared from 10,000 ppm DMSO stock solutions. After drying the leaf discs were infested with five L1 larvae. The samples were assessed for mortality, anti-feeding effect, and growth inhibition in comparison to untreated samples 3 days after infestation. Control of Spodoptera littoralis by a test sample is given when at least one of the categories mortality, anti-feedant effect, and growth inhibition is higher than the untreated sample.

[2] = test system: Diabrotica balteata; test: Diabrotica balteata (corn root worm), maize sprouts sprayed, L2 larvae; conditions: 96 h, read-out: effect in at least one of the two categories (mortality or growth inhibition); for percent effect (mortality or growth inhibition) at 200 ppm: application rate 200 ppm, 4 days after infestation, L2 larvae
Experimental: Diabrotica Balteata (Corn Root Worm)
Maize sprouts placed onto an agar layer in 24-well microtiter plates were treated with aqueous test solutions prepared from 10,000 ppm DMSO stock solutions by spraying. After drying, the plates were infested with L2 larvae (6 to 10 per well). The samples were assessed for mortality and growth inhibition in comparison to untreated samples 4 days after infestation.

[3] = test system: Myzus persicae; test: Myzus persicae (green peach aphid), intrinsic activity; conditions: 120 h
Text: Myzus persicae (Green Peach Aphid). Intrinsic Activity
Test compounds prepared from 10,000 ppm DMSO stock solutions were applied by pipette into 24-well microtiter plates and mixed with sucrose solution. The plates were closed with a stretched Parafilm. A plastic stencil with 24 holes was placed onto the plate and infested pea seedlings were placed directly on the Parafilm. The infested plate was closed with a gel blotting paper and another plastic stencil and then turned upside down. The samples were assessed for mortality 5 days after infestation.

[4] = test system: Tetranychus urticae; test: Tetranychus urticae (two-spotted spider mite), feeding/contact activity; conditions: foliar, 192 h, read-out: mortality on mixed population (mobile stages)
Experimental: Tetranychus urticae (Two-Spotted Spider Mite): Feeding/Contact Activity
Bean leaf discs on agar in 24-well microtiter plates were sprayed with aqueous test solutions prepared from 10,000 ppm DMSO stock solutions. After drying the leaf discs were infested with a mite population of mixed ages. The samples were assessed for mortality on mixed population (mobile stages) 8 days after infestation.

[5] = test system: Myzus persicae; test: Myzus persicae (green peach aphid), feeding/contact activity; conditions: foliar, 144 h
Experimental: Myzus persicae (Green Peach Aphid): Feeding/Contact Activity
Sunflower leaf discs were placed onto agar in a 24-well microtiter plate and sprayed with aqueous test solutions prepared from 10,000 ppm DMSO stock solutions. After drying, the leaf discs were infested with an aphid population of mixed ages. The samples were assessed for mortality 6 days after infestation.

[6] = test system: Plutella xylostella; test: Plutella xylostella (diamond back moth), artificial diet, L2 larvae; conditions: 120 h, read-out: effect in at least one of the two categories (mortality or growth inhibition); for percent effect (mortality or growth inhibition) at 200 ppm: application rate 200 ppm, 5 days after infestation, L2 larvae
Experimental: Plutella xylostella (Diamond Back Moth)
24-well microtiter plates with artificial diet were treated with aqueous test solutions prepared from 10,000 ppm DMSO stock solutions by pipetting. After drying, the plates were infested with L2 larvae (10 to 15 per well). The samples were assessed for mortality and growth inhibition in comparison to untreated samples 5 days after infestation.

[7] = test system: Thrips tabaci; test: Thrips tabaci (onion thrips), feeding/contact activity; conditions: foliar, 144 h
Experimental: Thrips tabaci (Onion thrips) Feeding/Contact Activity
Sunflower leaf discs were placed on agar in 24-well microtiter plates and sprayed with aqueous test solutions prepared from 10,000 ppm DMSO stock solutions. After drying the leaf discs were infested with a thrips population of mixed ages. The samples were assessed for mortality 6 days after infestation.

[8] = test system: Euschistus heros; test: Euschistus heros (neotropical brown stink bug), soybean leaves sprayed, N2 nymphs; conditions: 120 h, read-out: effect in at least one of the two categories (mortality or growth inhibition); for percent effect (mortality or growth inhibition) at 200 ppm: application rate 200 ppm, 5 days after infestation, N2 nymphs
Experimental: Euschistus heros (Neotropical Brown Stink Bug)
Soybean leaves on agar in 24-well microtiter plates were sprayed with aqueous test solutions prepared from 10,000 ppm DMSO stock solutions. After drying the leaves were infested with N2 nymphs. The samples were assessed for mortality and growth inhibition in comparison to untreated samples 5 days after infestation.

[9] = application rate 200 ppm, 3 days after infestation, L1 larvae
[10] = test rate 12 ppm, 5 days after infestation, sucrose solution, infested pea seedlings, read-out: mortality
[11] = application rate 200 ppm, 8 days after infestation, bean leaf discs
[12] = application rate 200 ppm, 6 days after infestation, sunflower leaf discs, mixed ages, read-out: mortality

Cc1cc(C2=NCC(c3cc(Cl)cc(Cl)c3)(C(F)(F)F)C2)ccc1C(=O)NC1CON(S(C)(=O)=O)C1 (centres unmarked) [Compound A5, 4-[3-(3,5-dichlorophenyl)-3-(trifluoromethyl)-2,4-dihydropyrrol-5-yl]-2-methyl-N-(2-methylsulfonylisoxazolidin-4-yl)benzamide]
≥ 80%: percent control (mortality, anti-feedant effect or growth inhibition) at 200 ppm [1, 9] | percent effect (mortality or growth inhibition) at 200 ppm [2] | mortality at 12 ppm [3, 10] | mortality at 200 ppm [4, 11] | mortality at 200 ppm [5, 12] | percent effect (mortality or growth inhibition) at 200 ppm [6] | mortality at 200 ppm [7, 12] | percent effect (mortality or growth inhibition) at 200 ppm [8]

Cc1cc(C2=NCC(c3cc(Cl)c(Cl)c(Cl)c3)(C(F)(F)F)C2)ccc1C(=O)NC1CON(S(C)(=O)=O)C1 (centres unmarked) [Compound A8, 2-methyl-N-(2-methylsulfonylisoxazolidin-4-yl)-4-[3-(3,4,5-trichlorophenyl)-3-(trifluoromethyl)-2,4-dihydropyrrol-5-yl]benzamide]
≥ 80%: percent control (mortality, anti-feedant effect or growth inhibition) at 200 ppm [1, 9] | percent effect (mortality or growth inhibition) at 200 ppm [2] | mortality at 12 ppm [3, 10] | mortality at 200 ppm [4, 11] | mortality at 200 ppm [5, 12] | percent effect (mortality or growth inhibition) at 200 ppm [6] | mortality at 200 ppm [7, 12] | percent effect (mortality or growth inhibition) at 200 ppm [8]

Cc1cc(C2=NS[C@@](c3cc(Cl)cc(Cl)c3)(C(F)(F)F)C2)ccc1C(=O)NC1CON(S(C)(=O)=O)C1 (stereo partly drawn) [Compound A2, 4-[(5S)-5-(3,5-dichlorophenyl)-5-(trifluoromethyl)-4H-isothiazol-3-yl]-2-methyl-N-(2-methylsulfonylisoxazolidin-4-yl)benzamide]
≥ 80%: percent control (mortality, anti-feedant effect or growth inhibition) at 200 ppm [1, 9] | percent effect (mortality or growth inhibition) at 200 ppm [2] | mortality at 12 ppm [3, 10] | mortality at 200 ppm [4, 11] | mortality at 200 ppm [5, 12] | percent effect (mortality or growth inhibition) at 200 ppm [6] | mortality at 200 ppm [7, 12] | percent effect (mortality or growth inhibition) at 200 ppm [8]

Cc1cc(C2=NO[C@](c3cc(Cl)cc(Cl)c3)(C(F)(F)F)[C@H]2Cl)ccc1C(=O)NC1CON(S(C)(=O)=O)C1 (stereo partly drawn) [Compound A4, 4-[(4S,5R)-4-chloro-5-(3,5-dichlorophenyl)-5-(trifluoromethyl)-4H-isoxazol-3-yl]-2-methyl-N-(2-methylsulfonylisoxazolidin-4-yl)benzamide]
≥ 80%: percent control (mortality, anti-feedant effect or growth inhibition) at 200 ppm [1] | percent control (mortality or growth inhibition) at 200 ppm [2] | mortality at 12 ppm [3] | mortality at 200 ppm [4] | mortality at 200 ppm [5] | percent control (mortality or growth inhibition) at 200 ppm [6] | mortality at 200 ppm [7] | percent control (mortality or growth inhibition) at 200 ppm [8]
